Measurements published in publication PMC6627609, “Targeting Quorum Sensing: High-Throughput Screening to Identify Novel LsrK Inhibitors” (International Journal of Molecular Sciences, 2019).
Counter-ions that a name gives are not always drawn.

target: LsrK (Salmonella typhimurium, UniProt Q8ZKQ6); test: biochemical; format: biochemical, S. typhimurium; conditions: not given
Sequence (Q8ZKQ6 whole entry): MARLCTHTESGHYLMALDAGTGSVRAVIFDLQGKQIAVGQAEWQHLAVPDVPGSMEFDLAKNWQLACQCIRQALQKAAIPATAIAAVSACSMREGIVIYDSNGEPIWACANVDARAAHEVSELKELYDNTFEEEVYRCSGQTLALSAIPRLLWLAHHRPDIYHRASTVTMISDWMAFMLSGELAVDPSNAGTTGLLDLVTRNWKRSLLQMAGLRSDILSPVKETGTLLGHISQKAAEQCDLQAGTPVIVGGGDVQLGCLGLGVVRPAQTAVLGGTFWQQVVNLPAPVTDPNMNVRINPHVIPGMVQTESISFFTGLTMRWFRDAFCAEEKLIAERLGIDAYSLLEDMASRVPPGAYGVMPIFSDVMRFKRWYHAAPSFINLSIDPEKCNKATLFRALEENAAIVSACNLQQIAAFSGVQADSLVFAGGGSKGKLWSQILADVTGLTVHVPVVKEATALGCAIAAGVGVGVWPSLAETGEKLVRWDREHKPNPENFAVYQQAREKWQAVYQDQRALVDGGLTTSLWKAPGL

Row | SMILES | inhibition at 50 µM
1 | COc1ccnc(C[S+]([O-])c2nc3ccc(OC(F)F)cc3[nH]2)c1OC (centres unmarked) [PANTOPRAZOLE] | 3%
2 | COc1ccc(Cc2nccc3cc(OC)c(OC)cc23)cc1OC [PAPAVERINE HYDROCHLORIDE] | 1%
3 | Oc1ccc(Cl)cc1 [PARACHLOROPHENOL] | 1%
4 | N=C1C=CC(=C(c2ccc(N)cc2)c2ccc(N)cc2)C=C1 [PARA[…]] | 138%
5 | NC[C@@H]1O[C@H](O[C@H]2[C@@H](O)[C@H](O[C@@H]3[C@@H](O)[C@H](N)C[C@H](N)[C@H]3O[C@H]3O[C@H](CO)[C@@H](O)[C@H](O)[C@H]3N)O[C@@H]2CO)[C@H](N)[C@@H](O)[C@@H]1O [PAROMOMYCIN SULFATE] | 3%
6 | Fc1ccc([C@@H]2CCNC[C@H]2COc2ccc3c(c2)OCO3)cc1 [PAROXETINE HYDROCHLORIDE] | 1%
7 | C=C1C(=O)O[C@H]2[C@H]1CC/C(C)=C/CC[C@@]1(C)O[C@@H]21 [PARTHENOLIDE] | 3%
8 | O=C1C=C2C(=CCOC2O)O1 (centres unmarked) [PATULIN] | 99%
9 | CN1C(C)(C)CCCC1(C)C [PEMPIDINE TARTRATE] | 2%
10 | CC1(C)S[C@@H]2[C@H](NC(=O)Cc3ccccc3)C(=O)N2[C@H]1C(=O)O [PENICILLIN G POTASSIUM] | 4%
11 | C1CCc2nnnn2CC1 [PENTYLENETETRAZOL] | 0%
12 | C1CCC(C(CC2CCCCN2)C2CCCCC2)CC1 (centres unmarked) [PERHEXILINE MALEATE] | 1%
13 | N#Cc1ccc2c(c1)N(CCCN1CCC(O)CC1)c1ccccc1S2 [PERICIAZINE] | 4%
14 | CCC[C@H](N[C@@H](C)C(=O)N1[C@H](C(=O)O)C[C@@H]2CCCC[C@@H]21)C(=O)OCC [PERINDOPRIL ERBUMINE] | 15%
15 | CO[C@H]1[C@H](O)[C@H](O[C@H]2CC[C@@]3(C=O)[C@H](CC[C@@H]4[C@@H]3CC[C@]3(C)[C@@H](C5=CC(=O)OC5)CC[C@]43O)C2)O[C@@H](C)[C@@H]1O [PERUVOSIDE] | 1%
16 | NCC(=O)c1ccccc1 [PHENACYLAMINE HYDROCHLORIDE] | 1%
17 | [H]/N=C(/N)N/C(=N/[H])NCCc1ccccc1 [PHENFORMIN HYDROCHLORIDE] | 0%
18 | CN(C)CCC(c1ccccc1)c1ccccn1 (centres unmarked) [PHENIRAMINE MALEATE] | 3%
19 | O=C1OC(c2ccc(O)cc2)(c2ccc(O)cc2)c2ccccc21 [PHENOLPHTHALEIN] | 0%
20 | CC(COc1ccccc1)N(CCCl)Cc1ccccc1 (centres unmarked) [PHENOXYBENZAMINE HYDROCHLORIDE] | 1%
21 | CC(C)(N)Cc1ccccc1 [PHENTERMINE] | 15%
22 | Cc1ccc(N(CC2=NCCN2)c2cccc(O)c2)cc1 [PHENTOLAMINE HYDROCHLORIDE] | 0%
23 | CCCCC1C(=O)N(c2ccccc2)N(c2ccccc2)C1=O [PHENYLBUTAZONE] | 0%
24 | O=C(CCc1ccc(O)cc1)c1c(O)cc(O)cc1O [PHLORETIN] | 60%
25 | O=C(O)c1ccccc1C(=O)Nc1ccc(S(=O)(=O)Nc2nccs2)cc1 [PHTHALYLSULFATHIAZOLE] | 1%
26 | CNC(=O)Oc1ccc2c(c1)[C@]1(C)CCN(C)[C@@H]1N2C [PHYSOSTIGMINE SALICYLATE] | 1%
27 | CC(C)(O)[C@@H]1[C@H]2OC(=O)[C@@H]1[C@]1(O)C[C@H]3O[C@]34C(=O)O[C@H]2[C@]14C [PICROTIN] | 1%
28 | CN1CCC(=C2c3ccccc3Sc3ccccc32)CC1 [PIMETHIXENE MALEATE] | 0%
29 | CCc1ccc(CCOc2ccc(CC3SC(=O)NC3=O)cc2)nc1 (centres unmarked) [PIOGLITAZONE HYDROCHLORIDE] | 0%

same assay, conditions: 50 µM

Row | SMILES | Inhibition (%)
30 | CCn1cc(C(=O)O)c(=O)c2cc(F)c(N3CCN(C)CC3)cc21.CS(=O)(=O)O [PEFLOXACINE MESYLATE] | 2
31 | CC(=O)OCC(OC(C)=O)C(OC(C)=O)C(OC(C)=O)C(OC(C)=O)C(COC(C)=O)OC(C)=O (centres unmarked) [PERSITOL HEPTAACETATE] | 3
32 | CC(=O)c1c(O)cc(O)cc1O [PHLORACETOPHENONE] | 1
